Where two headings read alike, the source gives them in different places.

Common to all, as to assay type: cell-based, human
The subject of one test is SW-480. Nature of the test: ATP luminescence proliferation assay, SW-480. The following applies: ATP luminescence, SW480, 96 h incubation; read-out: EC50 SW480 (96 h). Summed up:
(§1)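 Free compounds and conjugates tested as 1:3 dilution series on cells seeded 3 h earlier at 1.0×10^3/well. Exposure 48, 72 or 96 h; ATP-based luminescence; EC50 taken at 50% proliferation reduction.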

Test [1] relates to OVCAR3. As to the kind of experiment: 3H thymidine proliferation assay, OVCAR3. The settings on record: 3H thymidine method, 72 h incubation; read-out: EC50, OVCAR3. Summed up: (§2)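 Proliferation is read as incorporated ^3H-thymidine (1.0 μCi/well, final 24 h) after 72 h with 1:3 dilution series of free compound or conjugate; 1.0×10^4 cells/well. The EC50 is where proliferation falls by 50%.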

A further test concerns 786-O. As to the kind of experiment: 3H thymidine proliferation assay, 786-O. The following applies: 3H thymidine method, 72 h incubation; read-out: EC50, 786-O. The method in brief:
as §2

Another test relates to Raji. As to the kind of experiment: 3H thymidine proliferation assay, Raji. The following applies: 3H thymidine method, 72 h incubation; read-out: EC50, Raji. The method in brief:
as §2

In another test the test system is SW-620. Nature of the test: ATP luminescence proliferation assay, SW-620. The settings on record: ATP luminescence, SW-620, 96 h incubation; read-out: EC50 SW-620 (96 h). Summed up:
as §1

A further test concerns HCT-15. As to the kind of experiment: ATP luminescence proliferation assay, HCT-15. The following applies: ATP luminescence. The method in brief: as §1
The subject of another test is U-87 MG. Nature of the test: ATP luminescence proliferation assay, U-87 MG. The following applies: ATP luminescence, 72 h incubation, read-out: EC50 U-87 MG (72 h). Summed up: as §1
Another test deals with PC3. Nature of the test: 3H thymidine proliferation assay, PC3. The settings on record: 3H thymidine method, 72 h incubation; read-out: EC50, PC3. The method in brief: as §2
In another test the test system is RPMI-8226. Nature of the test: 3H thymidine proliferation assay, RPMI-8226. The settings on record: 3H thymidine method, 72 h incubation; read-out: EC50, RPMI-8226. Summed up:
as §2

The next test relates to UO-31. As to the kind of experiment: 3H thymidine proliferation assay, UO-31. The following applies: 3H thymidine method, 72 h incubation; read-out: EC50, UO-31. Summed up:
as §2

Test [2] concerns HL-60. As to the kind of experiment: ATP luminescence proliferation assay, HL-60. The following applies: ATP luminescence. The method in brief:
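Cells seeded at 1.0×10^3 cells/well for 3 h, then exposed to 1:3 serial dilutions of free compounds or conjugates for 48, 72 or 96 h, as noted. ATP measured by luminescent cell viability kit; EC50 taken as concentration reducing proliferation by 50%.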

The subject of the next test is NCI-H460. Nature of the test: ATP luminescence proliferation assay, NCI-H460. The following applies: ATP luminescence, NCI-H460, 72 h incubation; read-out: EC50 NCI-H460 (72 h). The method in brief:
as §1

Test [3] has as its system HL-60. Nature of the test: 3H thymidine proliferation assay, HL-60. The following applies: 3H thymidine method, 72 h incubation; read-out: EC50, HL-60. The method in brief: as §2
In test [4] the test system is OVCAR3. As to the kind of experiment: ATP luminescence proliferation assay, OVCAR3. The following applies: ATP luminescence. Summed up:
as §1

Another test relates to HPAC. As to the kind of experiment: ATP luminescence proliferation assay, HPAC. The settings on record: ATP luminescence, 72 h incubation, read-out: EC50 HPAC (72 h). On the procedure:
This example generally describes the procedures used to assay the antiproliferative activity of compounds of this invention or their conjugates. Human tumor cell lines were obtained from the American Type Culture Collection (ATCC), P.O. Box 1549, Manassas, Va. 20108, USA, and cultured according to instruction from the ATCC. Cells were seeded at 1.0×10^3 or 1.0×10^4 cells/well in 96-well plates for 3 h for ATP assays or ^3H thymidine assays, respectively. 1:3 serial dilutions of free (unconjugated) compounds or their conjugates were added to the wells. Plates were allowed to incubate for 24 to 72 h. The ^3H thymidine plates were pulsed with 1.0 μCi of ^3H-thymidine per well for the last 24 hours of the total incubation period, harvested, and read on a Top Count Scintillation Counter (Packard Instruments, Meriden, Conn.). ATP levels in the ATP plates were measured using the […]-GLO® Luminescent Cell Viability kit following the manufacturer's manual and read on a GLOMAX® 20/20 luminometer (both from Promega, Madison, Wis., USA). The EC50 values—the concentration at which an agent inhibits or reduces cell proliferation by 50% —were determined using PRISM™ software, version 4.0 (GraphPad Software, La Jolla, Calif., USA).
Using the ^3H thymidine or the ATP luminescence assay, or both, the activities of compounds of this invention were assayed against the following cancer cell lines: HCT-15 (colorectal cancer, multi-drug resistant (MDR)); Hep3B (liver cancer); LNCaP (prostate cancer, androgen receptor positive (AR^+)); MDA-MB-231 (breast cancer, estrogen receptor, progesterone receptor, and Her2 negative (triple negative)); A2058 (melanoma); U-87 MG (glioblastoma); NCI-H460 (NSCLC); A549 (NSCLC); HPAC (pancreatic cancer, primary); PC3 (prostate cancer, AR); BT474 (breast cancer, Her2 highly positive (Her2hi)); SKOV3 (ovarian cancer, Her2hi); 786-O (renal cancer); UO-31 (renal cancer, MDR); NCI-H740 (SCLC); DMS53 (SCLC); SK-BR3 (breast cancer, Her2hi); ZR-75 (breast cancer, estrogen receptor positive); OVCAR3 (ovarian cancer); HL-60 (APL); OVCAR8/Adr (ovarian cancer, MDR); CEM-Cl (ALL); Nomo-1 (AML); RPMI-8226 (MM)); Raji (lymphoma); SW-480 (colorectal cancer, metastatic); SW-620 (colorectal cancer); and H226 (lung cancer). (Not all compounds were assayed against all cell lines.)
Table 3 provides the data for the ATP luminescence proliferation assays, with an incubation period of 48, 72, or 96 h, as noted.

Another test has as its system ZR-75. Nature of the test: ATP luminescence proliferation assay, ZR-75. The settings on record: ATP luminescence, ZR-75, 48 h incubation; read-out: EC50 ZR-75 (48 h). The method in brief: as §1
Another test concerns SK-BR3. Nature of the test: 3H thymidine proliferation assay, SK-BR3. The settings on record: 3H thymidine method, 72 h incubation. Summed up: as §2
A further test concerns CEM-Cl. As to the kind of experiment: ATP luminescence proliferation assay, CEM-C1. The following applies: ATP luminescence. Summed up: as §1
Setting [5] is: HCT-15, 72 h incubation, read-out: EC50 HCT-15 (72 h).
Setting [6] is: HL-60, 72 h incubation, read-out: EC50 HL-60 (72 h).
[7] abbreviates: OVCAR3, 48 h incubation, read-out: EC50 OVCAR3 (48 h).
Where [8] appears, read: CEM-C1, 72 h incubation, read-out: EC50 CEM-C1 (72 h).

For `CC[C@H](C)[C@H](NC(=O)[C@H]1CCCCN1C)C(=O)N(COC(=O)CC(C)C)[C@H](C[C@@H](O)c1nc(C(=O)N[C@@H](Cc2ccccc2)C(=O)OC)cs1)C(C)C` [Compound 28], the EC50 (in general, the concentration that produces a half-maximal response) in the test on SW-480 was 36 nM; in the test on OVCAR3 [1], 3.1 nM; with 786-O, 61 nM; in the test on Raji, 13 nM; in the test with SW-620 it was 21 nM; in the test on HCT-15 (setting [5]), 132 nM. The EC50 is 18 nM in the test with U-87 MG; more than 100 nM in the test with PC3; 8.7 nM with RPMI-8226; more than 100 nM with UO-31; 2.9 nM in the test with HL-60 [2] (setting [6]); 35 nM in the test with NCI-H460. Further, the EC50 is 7.7 nM in the test on HL-60 [3]; 14 nM with OVCAR3 [4] (setting [7]); 5.9 nM with HPAC; 16 nM in the test with ZR-75; more than 100 nM with SK-BR3; 11 nM in the test on CEM-Cl (setting [8]).

For the compound `CC[C@H](C)[C@H](NC(=O)[C@H]1CCCCN1C)C(=O)N(COC(=O)CC(C)C)[C@H](C[C@@H](OC(C)=O)c1nc(C(=O)N[C@@H](Cc2ccccc2)C(=O)OC)cs1)C(C)C` [Compound 29], the concentration for a half-maximal effect (EC50) in the test with SW-480 was found to be 2.7 nM; in the test on OVCAR3 [1], 0.02 nM; in the test with 786-O, 1.2 nM; in the test on Raji, 0.024 nM; in the test with SW-620, 1.5 nM; in the test on HCT-15 (setting [5]) it was 4.5 nM. Also, the EC50 is 4.9 nM in the test on U-87 MG; 0.21 nM in the test with PC3; 0.034 nM in the test with RPMI-8226; 0.13 nM in the test with UO-31; 0.59 nM in the test on HL-60 [2] (HL-60, 48 h incubation, read-out: EC50 HL-60 (48 h)); 3 nM in the test on NCI-H460. Further, the EC50 with HL-60 [3] is 0.0099 nM; with OVCAR3 [4] (setting [7]) it was more than 100 nM; in the test on HPAC it was 4.9 nM; with ZR-75, 15 nM; with SK-BR3 it was 1.1 nM; with CEM-Cl (setting [8]), 0.85 nM.

Consider `CC[C@H](C)[C@H](NC(=O)[C@H]1CCCCN1C)C(=O)N(COC)[C@H](C[C@@H](OC)c1nc(C(=O)N[C@@H](Cc2ccccc2)C(=O)OC)cs1)C(C)C` [Compound 29c], for which the EC50 in the test with SW-480 was found to be 41 nM; in the test with OVCAR3 [1] it was 3.6 nM; in the test on 786-O, 3.9 nM; in the test with Raji it was 8.5 nM; in the test with SW-620, 8.4 nM; in the test with HCT-15 (HCT-15, 48 h incubation, read-out: EC50 HCT-15 (48 h)), 200 nM. Further, the EC50 in the test with U-87 MG stood at 136 nM; in the test on PC3, 11 nM; with RPMI-8226, 16 nM; with UO-31, 1 nM; in the test with HL-60 [2] (setting [6]) it was 8.6 nM; with NCI-H460, 6 nM. Moreover, the EC50 in the test with HL-60 [3] is 1.8 nM; with OVCAR3 [4] (OVCAR3, 72 h incubation, read-out: EC50 OVCAR3 (72 h)) it was 99 nM; in the test with HPAC it was 4.6 nM; in the test with ZR-75, 136 nM; in the test with SK-BR3 it was 72 nM; with CEM-Cl (CEM-C1, 48 h incubation, read-out: EC50 CEM-C1 (48 h)), 20 nM.
